Measured values: ChEMBL document CHEMBL1159134, “Heterocyclic guanidines as calcium antagonists” (Bioorg Med Chem Lett, 1994)
Where “and” joins values, the source holds several entries; their conditions need not be identical. Equal entries are not always repeated.

Legend:
[1] = Calcium channel-blocking effect was assessed in potassium ion depolarized guinea pig ileum strips by recording the contractile responses produced by varying concentrations of calcium chloride; assay type: functional, tissue-based; settings: Cavia porcellus, read-out: pA2 (converted)
[2] = biological target: T1, Voltage-dependent L-type calcium channel subunit alpha-1C (Rattus norvegicus, UniProt P22002); assay: Binding of [3H]nitrendipine to calcium channel in rat heart membranes was determined; assay type: cell membranes, Membrane
[3] = biological target: T1, Voltage-dependent L-type calcium channel subunit alpha-1C; assay: Binding of [3H]nitrendipine to calcium channel in rat heart membranes; assay type: cell membranes, Membrane
[4] = biological target: Voltage-gated L-type calcium channel (Rattus norvegicus, UniProt P22002+Q02485+P27732); assay: Binding of [3H]nitrendipine to calcium channel in rat cerebral cortex; assay type: tissue-based

T1 sequence (P22002 whole entry): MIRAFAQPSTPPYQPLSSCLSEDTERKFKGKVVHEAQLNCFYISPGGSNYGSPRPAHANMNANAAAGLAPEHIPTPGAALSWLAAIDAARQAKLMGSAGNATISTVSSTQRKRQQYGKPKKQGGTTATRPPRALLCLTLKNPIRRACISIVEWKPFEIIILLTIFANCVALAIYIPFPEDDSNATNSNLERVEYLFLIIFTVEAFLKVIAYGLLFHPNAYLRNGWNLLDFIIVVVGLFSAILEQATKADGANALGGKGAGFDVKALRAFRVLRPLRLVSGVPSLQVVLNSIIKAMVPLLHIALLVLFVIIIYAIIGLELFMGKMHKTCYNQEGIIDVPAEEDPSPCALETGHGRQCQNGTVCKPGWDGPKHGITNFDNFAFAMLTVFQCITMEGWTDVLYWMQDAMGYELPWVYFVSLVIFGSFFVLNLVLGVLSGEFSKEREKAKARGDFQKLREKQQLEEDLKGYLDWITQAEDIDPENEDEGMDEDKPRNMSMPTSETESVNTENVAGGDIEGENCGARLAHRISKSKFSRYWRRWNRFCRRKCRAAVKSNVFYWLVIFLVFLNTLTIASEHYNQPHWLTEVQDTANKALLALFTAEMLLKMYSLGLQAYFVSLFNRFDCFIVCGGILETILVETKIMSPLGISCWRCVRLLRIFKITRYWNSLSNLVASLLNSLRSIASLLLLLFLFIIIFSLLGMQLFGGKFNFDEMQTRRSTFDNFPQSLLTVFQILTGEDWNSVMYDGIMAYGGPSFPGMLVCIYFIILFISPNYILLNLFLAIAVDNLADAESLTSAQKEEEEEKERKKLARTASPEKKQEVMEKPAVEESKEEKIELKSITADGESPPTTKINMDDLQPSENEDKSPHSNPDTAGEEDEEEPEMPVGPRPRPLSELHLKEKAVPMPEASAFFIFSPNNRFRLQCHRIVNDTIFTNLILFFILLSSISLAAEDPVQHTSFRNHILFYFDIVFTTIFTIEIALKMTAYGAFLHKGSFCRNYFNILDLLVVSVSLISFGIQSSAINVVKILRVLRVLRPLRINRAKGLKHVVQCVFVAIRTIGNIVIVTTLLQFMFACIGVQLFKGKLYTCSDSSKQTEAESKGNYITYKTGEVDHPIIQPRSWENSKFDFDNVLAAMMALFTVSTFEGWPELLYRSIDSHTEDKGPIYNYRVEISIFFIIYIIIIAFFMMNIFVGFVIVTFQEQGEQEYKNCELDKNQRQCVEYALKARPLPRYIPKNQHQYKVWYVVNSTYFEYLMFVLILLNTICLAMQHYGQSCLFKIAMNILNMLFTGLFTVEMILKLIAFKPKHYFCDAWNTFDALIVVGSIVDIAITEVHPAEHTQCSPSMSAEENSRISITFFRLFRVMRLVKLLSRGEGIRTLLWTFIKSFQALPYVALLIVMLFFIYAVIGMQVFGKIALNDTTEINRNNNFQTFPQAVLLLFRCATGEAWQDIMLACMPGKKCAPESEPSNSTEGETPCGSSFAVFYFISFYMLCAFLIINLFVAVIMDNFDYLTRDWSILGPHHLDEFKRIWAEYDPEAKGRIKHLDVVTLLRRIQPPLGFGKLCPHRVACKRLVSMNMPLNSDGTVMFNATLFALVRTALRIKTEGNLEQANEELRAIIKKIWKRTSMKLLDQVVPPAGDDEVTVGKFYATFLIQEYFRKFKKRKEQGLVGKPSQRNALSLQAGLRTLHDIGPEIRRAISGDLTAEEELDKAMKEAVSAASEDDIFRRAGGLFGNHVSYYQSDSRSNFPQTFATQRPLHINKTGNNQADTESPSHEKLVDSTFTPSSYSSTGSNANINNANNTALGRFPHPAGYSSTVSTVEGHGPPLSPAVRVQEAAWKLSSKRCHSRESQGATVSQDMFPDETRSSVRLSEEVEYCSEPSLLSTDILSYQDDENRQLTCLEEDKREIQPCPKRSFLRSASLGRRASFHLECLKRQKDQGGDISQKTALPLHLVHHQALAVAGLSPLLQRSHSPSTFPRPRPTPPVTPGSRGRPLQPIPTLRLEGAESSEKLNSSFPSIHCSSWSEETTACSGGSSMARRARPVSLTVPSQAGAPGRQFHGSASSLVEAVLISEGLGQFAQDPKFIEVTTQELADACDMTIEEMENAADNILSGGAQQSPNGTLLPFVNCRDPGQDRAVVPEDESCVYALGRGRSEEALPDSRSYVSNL

Row | Structure (SMILES) | Kb [1] [nM] | IC50 [2] [nM] | EC50 [3] | EC50 [4] [nM]
1 | c1ccc(C(CNC2=N[C@H]3CCCC[C@@H]3N2)c2ccccc2)cc1 | 141 | > 1000 |  | 
2 | c1ccc(C(CCN/C2=N/CCCCCN2)c2ccccc2)cc1 | 37.2 | > 1000 |  | 
3 | CN1CCCN=C1NCC(c1ccccc1)c1ccccc1 | 1100 | > 1000 |  | 
4 | c1ccc(C(CCNC2=NCCCN2)c2ccccc2)cc1 | 34.7 | > 1000 |  | 
5 | c1ccc(C(CNC2=NCCCN2)c2ccccc2)cc1 | 776 | > 1000 |  | 
6 | CN1CCN=C1NCCC(c1ccccc1)c1ccccc1 | 257 | > 1000 |  | 
7 | c1ccc(C(CNC2=NCCCCN2)c2ccccc2)cc1 | 550 | > 1000 |  | 
8 | c1ccc([C@@H]2CCC[C@@H]2N/C2=N/CCCCCCCCCCC2)cc1 |  |  | 61 nM and 34 nM | 
9 | c1ccc(C(CCNC2=NCCCCN2)c2ccccc2)cc1 | 240 | > 1000 |  | 
10 | c1ccc(C(CCNC2=N[C@H]3CCCC[C@@H]3N2)c2ccccc2)cc1 | 132 | > 1000 |  | 
11 | c1ccc(C(CCNC2=NCc3ccccc3CN2)c2ccccc2)cc1 | 50.1 | > 1000 |  | 
12 | c1ccc(C(CNC2=NCCN2)c2ccccc2)cc1 | 676 | > 1000 |  | 
13 | c1ccc(C(NC2=NCCN2)c2ccccc2)cc1 | 2510 | > 1000 |  | 
14 | CN1CCN=C1NCC(c1ccccc1)c1ccccc1 | 1860 | > 1000 |  | 
15 | CN1CCN=C1NCCCC(c1ccccc1)c1ccccc1 | 170 | > 1000 |  | 
16 | c1ccc(C(CCNC2=NCCN2)c2ccccc2)cc1 | 57.5 | > 1000 |  | 
17 | c1ccc(C(CNC2=NCc3ccccc3CN2)c2ccccc2)cc1 | 81.3 | > 1000 |  | 
18 | c1ccc(C(CNC2=NCCCCCN2)c2ccccc2)cc1 | 251 | > 1000 |  | 
19 | CCCC(CN/C1=N/CCCCCCCCCCC1)(c1ccccc1)c1ccccc1 | 53.7 | > 1000 | 34 nM | 61
20 | CN1CCCN=C1NCCC(c1ccccc1)c1ccccc1 | 240 | > 1000 |  | 
21 | COc1ccc([C@@H]2Sc3ccccc3N(CCN(C)C)C(=O)[C@@H]2OC(C)=O)cc1 [DILTIAZEM] | 41.7 |  |  | 
